In general, ED50 refers to the dose that gives a 50% effect, or the effect in half of the subjects. Low values mean greater potency, high ones weaker potency. For orientation: LD50 means the dose expected to kill half of the subjects tested. Lower therefore signals greater toxicity.

Data set [1] deals with Mus musculus. The data set can be described thus: Analgesic Activity in sc dosed albino dd mouse by tail pressure stimuli method. The format is functional.
Data set [2] in a line: Acute toxicity in iv dosed albino dd mouse. The format is organism-based. The conditions noted are these: in vivo.

Where a name gives a salt, the structure may show the parent alone.

Compound `CC(O)C(=O)O.CN1CCC2CC(Cc3ccccc32)C1` (stereo unspecified) registered an ED50 in data set [1] of 53.1 µmol/kg. The compound also had an LD50 in data set [2] of 106 µmol/kg.

In turn, `Br.CN1CC[C@@H]2CC(Cc3ccc(O)cc32)C1` yielded a median effective dose (ED50) in data set [1] of 10.7 µmol/kg. In data set [2], the median lethal dose (LD50) was determined as 121 µmol/kg.

Compound `CC(O)C(=O)O.C[C@H]1C2Cc3ccc(O)cc3[C@@H]1CCN(C)C2` yielded an ED50 in data set [1] of 9.9 µmol/kg. The LD50 in data set [2] came to 184 µmol/kg.

Turning to `CC(O)C(=O)O.C[C@@H]1C2Cc3ccc(O)cc3[C@@H]1CCN(C)C2`, the ED50 in data set [1] was found to be 8 µmol/kg. The LD50 in data set [2] amounted to 153 µmol/kg.

In data set [1], `CC(O)C(=O)O.CN1CC[C@]2(C)CC(Cc3ccc(O)cc32)C1` came in with an ED50 of 7 µmol/kg. In addition, the LD50 in data set [2] was found to be 67 µmol/kg.

`CC(O)C(=O)O.C[C@H]1C2Cc3ccc(O)cc3[C@]1(C)CCN(C)C2`: in data set [1], the 50% effect level (ED50) was put at a dose of 5.2 µmol/kg. The compound further yielded an LD50 in data set [2] of 126 µmol/kg.

Regarding `Br.C[C@@H]1C2Cc3ccc(O)cc3[C@]1(C)CCN(C)C2`, the ED50 in data set [1] was 4.1 µmol/kg. The LD50 in data set [2] amounted to 113 µmol/kg.

Consider `COc1ccc2c3c1O[C@H]1[C@@H](O)C=C[C@H]4[C@@H](C2)N(C)CC[C@@]341` [CODEINE PHOSPHATE], for which the 50% effect level in data set [1] (ED50) was put at a dose of 30.7 µmol/kg.

In data set [1], `CN1CC[C@]23c4c5ccc(O)c4O[C@H]2[C@@H](O)C=C[C@H]3[C@H]1C5` [MORPHINE HYDROCHLORIDE] yielded a 50% effective dose (ED50) of 4.4 µmol/kg.

For the origin of these results see ChEMBL document CHEMBL3272169, “10-Hydroxy-4-methyl-2,3,4,5,6,7-hexahydro-1,6-methano-1H-4-benzazonine derivatives (homobenzomorphans) as analgesics” (J Med Chem, 1976).
